Patent publication US20020137929A1, “1 - (3-heterocyclylphenyl) isothiourea, -isourea, -guanidine and -amidine herbicidal agents” (Intellectual Property Department, BASF Aktiengesellschaft, priority 1998, published 2002)

Tests used:
ABUTH (Velvetleaf) = test: Postemergence herbicidal evaluation; assay type: in vivo, Abutilon theophrasti; details: postemergence
Outline: (§1)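 Scores (0–9) reflect plant stand, vigor, malformation, size, chlorosis and general appearance relative to control, read 4 to 5 weeks after treatment and averaged where tests were repeated. Application: about 0.0156–0.500 kg/ha sprayed at 40 psi onto two-week seedlings.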

AMBEL (Ragweed, Common) = test: Postemergence herbicidal evaluation; assay type: in vivo, Ambrosia artemisifolia; details: postemergence
Outline: as §1

[1] = system: IPOHE (Morningglory, Ivyleaf); test: Postemergence herbicidal evaluation; assay type: in vivo, Ipomoea hederacea; details: postemergence
Outline: as §1

ECHCG (Barnyardgrass) [2] = test: Postemergence herbicidal evaluation; assay type: in vivo, Echinochloa crus-galli; details: postemergence
Outline: as §1

SETVI (Foxtail, Green) = test: Postemergence herbicidal evaluation; assay type: in vivo, Setaria viridis; details: postemergence
Outline: as §1

[3] = system: GLXMAW (Soybean, Williams); test: Postemergence herbicidal evaluation; assay type: in vivo, Glycine max, (L.) Merr. cv Williams; details: postemergence
Outline: as §1

[4] = system: TRZAWR (Wheat, Winter, cv Riband); test: Postemergence herbicidal evaluation; assay type: in vivo, Triticum aestivum; details: postemergence
Outline: as §1

CASOB (Sicklepod) = test: Preemergence herbicidal evaluation; assay type: in vivo, Cassia obtusifolia; details: rated 4-5 weeks after treatment
Outline: (§2)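 Seeds were mixed with potting soil and planted on about one inch of soil, then sprayed with test compound in aqueous acetone at about 0.0156 to 0.500 kg per hectare. Plants grew under standard greenhouse care and were visually rated 0-9 against untreated controls 4-5 weeks post-treatment.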

[5] = system: CHEAL (Lambsquarters, Common); test: Preemergence herbicidal evaluation; assay type: in vivo, Chenopodium album; details: rated 4-5 weeks after treatment
Outline: as §2

GALAP (Galium) = test: Preemergence herbicidal evaluation; assay type: in vivo, Galium aparine; details: rated 4-5 weeks after treatment
Outline: as §2

[6] = system: IPOHE (Morningglory, Ivyleaf); test: Preemergence herbicidal evaluation; assay type: in vivo, Ipomoea hederacea; details: rated 4-5 weeks after treatment
Outline: as §2

ECHCG (Barnyardgrass) [7] = test: Preemergence herbicidal evaluation; assay type: in vivo, Echinochloa crus-galli; details: rated 4-5 weeks after treatment
Outline: as §2

ZEAMX (Corn, Field) = test: Preemergence herbicidal evaluation; assay type: in vivo, Zea mays; details: rated 4-5 weeks after treatment
Outline: as §2

CCN1C(=O)CSC1=Nc1cc(-n2c(=O)cc(C(F)(F)F)n(C)c2=O)c(F)cc1Cl [Compound 159, 3-{4-Chloro-5-[(3-ethyl-4-oxo-2-thiazolidinyl-idene)amino]-2-fluorophenyl}-1-methyl-6-(trifluoromethyl)-2,4(1H,3H)-pyrimidinedione]
2.0: Herbicidal rating ECHCG (ECHCG (Barnyardgrass) [2]; rate 0.0156 kg/ha) | Herbicidal rating SETVI (SETVI (Foxtail, Green); rate 0.0313 kg/ha) | Preemergence herbicidal rating IPOHE ([6]; 0.0313 kg/ha) | Preemergence herbicidal rating ECHCG (ECHCG (Barnyardgrass) [7]; 0.1250 kg/ha) | Preemergence herbicidal rating ZEAMX (ZEAMX (Corn, Field); 0.1250 kg/ha)
1.0: Herbicidal rating SETVI (SETVI (Foxtail, Green); rate 0.0156 kg/ha) | Preemergence herbicidal rating CASOB (CASOB (Sicklepod); 0.0313 kg/ha) | Preemergence herbicidal rating GALAP (GALAP (Galium); 0.0625 kg/ha) | Preemergence herbicidal rating ECHCG (ECHCG (Barnyardgrass) [7]; 0.0313 kg/ha) | Preemergence herbicidal rating ZEAMX (ZEAMX (Corn, Field); 0.0625 kg/ha)
3.5: Herbicidal rating TRZAWR ([4]; rate 0.0313 kg/ha) | Herbicidal rating TRZAWR ([4]; rate 0.0625 kg/ha)
2.5: Herbicidal rating TRZAWR ([4]; rate 0.0156 kg/ha)
5.5: Herbicidal rating GLXMAW ([3]; rate 0.0313 kg/ha)
9.0: Herbicidal rating ABUTH (ABUTH (Velvetleaf); rate 0.0156 kg/ha) | Herbicidal rating ABUTH (ABUTH (Velvetleaf); rate 0.0313 kg/ha) | Herbicidal rating ABUTH (ABUTH (Velvetleaf); rate 0.0625 kg/ha) | Herbicidal rating IPOHE ([1]; rate 0.0156 kg/ha) | Herbicidal rating IPOHE ([1]; rate 0.0313 kg/ha) | Herbicidal rating IPOHE ([1]; rate 0.0625 kg/ha) | Preemergence herbicidal rating CHEAL ([5]; 0.0313 kg/ha) | Preemergence herbicidal rating CHEAL ([5]; 0.1250 kg/ha) | Preemergence herbicidal rating CHEAL ([5]; 0.2500 kg/ha) | Preemergence herbicidal rating IPOHE ([6]; 0.0625 kg/ha) | Preemergence herbicidal rating IPOHE ([6]; 0.2500 kg/ha)
5.0: Herbicidal rating GLXMAW ([3]; rate 0.0156 kg/ha) | Preemergence herbicidal rating GALAP (GALAP (Galium); 0.1250 kg/ha) | Preemergence herbicidal rating GALAP (GALAP (Galium); 0.2500 kg/ha)
4.0: Herbicidal rating AMBEL (AMBEL (Ragweed, Common); rate 0.0156 kg/ha)
7.0: Herbicidal rating AMBEL (AMBEL (Ragweed, Common); rate 0.0313 kg/ha) | Herbicidal rating AMBEL (AMBEL (Ragweed, Common); rate 0.0625 kg/ha) | Herbicidal rating SETVI (SETVI (Foxtail, Green); rate 0.0625 kg/ha) | Herbicidal rating GLXMAW ([3]; rate 0.0625 kg/ha) | Preemergence herbicidal rating CASOB (CASOB (Sicklepod); 0.2500 kg/ha) | Preemergence herbicidal rating CHEAL ([5]; 0.0156 kg/ha) | Preemergence herbicidal rating IPOHE ([6]; 0.1250 kg/ha) | Preemergence herbicidal rating ZEAMX (ZEAMX (Corn, Field); 0.2500 kg/ha)
8.0: Preemergence herbicidal rating CHEAL ([5]; 0.0625 kg/ha)
0.0: Preemergence herbicidal rating CASOB (CASOB (Sicklepod); 0.0156 kg/ha) | Preemergence herbicidal rating GALAP (GALAP (Galium); 0.0156 kg/ha) | Preemergence herbicidal rating GALAP (GALAP (Galium); 0.0313 kg/ha) | Preemergence herbicidal rating IPOHE ([6]; 0.0156 kg/ha) | Preemergence herbicidal rating ECHCG (ECHCG (Barnyardgrass) [7]; 0.0156 kg/ha) | Preemergence herbicidal rating ECHCG (ECHCG (Barnyardgrass) [7]; 0.0625 kg/ha) | Preemergence herbicidal rating ZEAMX (ZEAMX (Corn, Field); 0.0156 kg/ha) | Preemergence herbicidal rating ZEAMX (ZEAMX (Corn, Field); 0.0313 kg/ha)
3.0: Herbicidal rating ECHCG (ECHCG (Barnyardgrass) [2]; rate 0.0313 kg/ha) | Herbicidal rating ECHCG (ECHCG (Barnyardgrass) [2]; rate 0.0625 kg/ha) | Preemergence herbicidal rating CASOB (CASOB (Sicklepod); 0.0625 kg/ha) | Preemergence herbicidal rating CASOB (CASOB (Sicklepod); 0.1250 kg/ha) | Preemergence herbicidal rating ECHCG (ECHCG (Barnyardgrass) [7]; 0.2500 kg/ha)

CCOC(=O)CN1C(=O)C(OC)SC1=Nc1cc(-n2c(=O)cc(C(F)(F)F)n(C)c2=O)c(F)cc1Cl (stereo not shown) [Compound 160, Ethyl 2-{{2-chloro-5-[3,6-dihydro-3-methyl-2,6-dioxo-4-(trifluoromethyl)-1(2H)-pyrimidinyl]-4-fluorophenyl}imino}-5-methoxy-4-oxo-3-thiazolidineacetate]
1.0: Preemergence herbicidal rating CASOB (CASOB (Sicklepod); 0.1250 kg/ha) | Preemergence herbicidal rating ECHCG (ECHCG (Barnyardgrass) [7]; 0.0625 kg/ha) | Preemergence herbicidal rating ZEAMX (ZEAMX (Corn, Field); 0.0625 kg/ha)
4.0: Herbicidal rating ECHCG (ECHCG (Barnyardgrass) [2]; rate 0.0625 kg/ha) | Herbicidal rating TRZAWR ([4]; rate 0.0313 kg/ha)
6.0: Herbicidal rating SETVI (SETVI (Foxtail, Green); rate 0.0313 kg/ha) | Herbicidal rating GLXMAW ([3]; rate 0.0313 kg/ha) | Herbicidal rating TRZAWR ([4]; rate 0.1250 kg/ha) | Preemergence herbicidal rating IPOHE ([6]; 0.0313 kg/ha)
9.0: Herbicidal rating ABUTH (ABUTH (Velvetleaf); rate 0.0156 kg/ha) | Herbicidal rating ABUTH (ABUTH (Velvetleaf); rate 0.0313 kg/ha) | Herbicidal rating ABUTH (ABUTH (Velvetleaf); rate 0.0625 kg/ha) | Herbicidal rating ABUTH (ABUTH (Velvetleaf); rate 0.1250 kg/ha) | Herbicidal rating AMBEL (AMBEL (Ragweed, Common); rate 0.0625 kg/ha) | Herbicidal rating AMBEL (AMBEL (Ragweed, Common); rate 0.1250 kg/ha) | Herbicidal rating IPOHE ([1]; rate 0.0156 kg/ha) | Herbicidal rating IPOHE ([1]; rate 0.0313 kg/ha) | Herbicidal rating IPOHE ([1]; rate 0.0625 kg/ha) | Herbicidal rating IPOHE ([1]; rate 0.1250 kg/ha) | Herbicidal rating SETVI (SETVI (Foxtail, Green); rate 0.0625 kg/ha) | Herbicidal rating SETVI (SETVI (Foxtail, Green); rate 0.1250 kg/ha) | Preemergence herbicidal rating CASOB (CASOB (Sicklepod); 0.5000 kg/ha) | Preemergence herbicidal rating CHEAL ([5]; 0.0313 kg/ha) | Preemergence herbicidal rating CHEAL ([5]; 0.0625 kg/ha) | Preemergence herbicidal rating CHEAL ([5]; 0.1250 kg/ha) | Preemergence herbicidal rating CHEAL ([5]; 0.2500 kg/ha) | Preemergence herbicidal rating CHEAL ([5]; 0.5000 kg/ha) | Preemergence herbicidal rating IPOHE ([6]; 0.0625 kg/ha) | Preemergence herbicidal rating IPOHE ([6]; 0.1250 kg/ha) | Preemergence herbicidal rating IPOHE ([6]; 0.5000 kg/ha) | Preemergence herbicidal rating ECHCG (ECHCG (Barnyardgrass) [7]; 0.2500 kg/ha) | Preemergence herbicidal rating ECHCG (ECHCG (Barnyardgrass) [7]; 0.5000 kg/ha)
5.0: Herbicidal rating ECHCG (ECHCG (Barnyardgrass) [2]; rate 0.0313 kg/ha) | Herbicidal rating GLXMAW ([3]; rate 0.0156 kg/ha) | Herbicidal rating TRZAWR ([4]; rate 0.0625 kg/ha) | Preemergence herbicidal rating ZEAMX (ZEAMX (Corn, Field); 0.2500 kg/ha)
0.0: Herbicidal rating SETVI (SETVI (Foxtail, Green); rate 0.0156 kg/ha) | Preemergence herbicidal rating CASOB (CASOB (Sicklepod); 0.0156 kg/ha) | Preemergence herbicidal rating CASOB (CASOB (Sicklepod); 0.0313 kg/ha) | Preemergence herbicidal rating GALAP (GALAP (Galium); 0.0156 kg/ha) | Preemergence herbicidal rating GALAP (GALAP (Galium); 0.0313 kg/ha) | Preemergence herbicidal rating GALAP (GALAP (Galium); 0.0625 kg/ha) | Preemergence herbicidal rating GALAP (GALAP (Galium); 0.1250 kg/ha) | Preemergence herbicidal rating ECHCG (ECHCG (Barnyardgrass) [7]; 0.0156 kg/ha) | Preemergence herbicidal rating ECHCG (ECHCG (Barnyardgrass) [7]; 0.0313 kg/ha) | Preemergence herbicidal rating ZEAMX (ZEAMX (Corn, Field); 0.0156 kg/ha) | Preemergence herbicidal rating ZEAMX (ZEAMX (Corn, Field); 0.0313 kg/ha)
7.0: Herbicidal rating AMBEL (AMBEL (Ragweed, Common); rate 0.0156 kg/ha) | Herbicidal rating AMBEL (AMBEL (Ragweed, Common); rate 0.0313 kg/ha) | Herbicidal rating ECHCG (ECHCG (Barnyardgrass) [2]; rate 0.1250 kg/ha) | Herbicidal rating GLXMAW ([3]; rate 0.0625 kg/ha) | Herbicidal rating GLXMAW ([3]; rate 0.1250 kg/ha) | Preemergence herbicidal rating CASOB (CASOB (Sicklepod); 0.2500 kg/ha) | Preemergence herbicidal rating GALAP (GALAP (Galium); 0.2500 kg/ha) | Preemergence herbicidal rating GALAP (GALAP (Galium); 0.5000 kg/ha)
2.0: Preemergence herbicidal rating CASOB (CASOB (Sicklepod); 0.0625 kg/ha) | Preemergence herbicidal rating CHEAL ([5]; 0.0156 kg/ha) | Preemergence herbicidal rating ECHCG (ECHCG (Barnyardgrass) [7]; 0.1250 kg/ha) | Preemergence herbicidal rating ZEAMX (ZEAMX (Corn, Field); 0.1250 kg/ha)
8.0: Preemergence herbicidal rating IPOHE ([6]; 0.2500 kg/ha) | Preemergence herbicidal rating ZEAMX (ZEAMX (Corn, Field); 0.5000 kg/ha)
3.0: Herbicidal rating ECHCG (ECHCG (Barnyardgrass) [2]; rate 0.0156 kg/ha) | Herbicidal rating TRZAWR ([4]; rate 0.0156 kg/ha) | Preemergence herbicidal rating IPOHE ([6]; 0.0156 kg/ha)
